The source of these data is US20120029068A1, “TRANSDERMAL FLUID” (MALAYSIAN PALM OIL BROARD A/K/A MPOB, priority 2007, published 2012).

Like-named read-outs stand apart in the source and are kept apart here.

For data set [1], the system named is MCF-7. The following applies: absence and presence of estradiol and tamoxifen; cited from earlier work.
Data set [2] deals with ZR-75-1 cells. The note with it: absence and presence of estradiol and tamoxifen; cited from earlier work.
Data set [3] relates to human breast cancer cells. The following applies: cited from earlier work; for anti-proliferative and pro-apoptotic effects / inhibition of breast cancer cell growth: human breast cancer cells.
The conditions of data set [4]: rats fed 50 mg of α-T3 or α-T, α-T3 vs α-T; cited from earlier work.
For data set [5], the system named is prostate cancer cell. The following applies: comparison between homologues; cited from earlier work.
In data set [6] the test system is IFN-γ. Briefly: IFN-γ ELISA on splenocytes of mice immunized with OVA. The format is in vivo, BALB/c mice. The following applies: transdermal δ-T3 vs control. The procedure: (§1) The mice were further immunized subcutaneously with ovalbumin (50 μg) adjuvanted in alum. Interferon-gamma (IFN-γ) was measured upon antigen specific stimulation of OVA.
The experimental mice were sacrificed using ether. Spleen was removed aseptically into RPMI complete medium and single cell suspension was made by teasing out the splenocytes from the spleen capsule. Before culture, cells were stained with 0.4% Trypan Blue Stain (GIBCO, Invitrogen Corp, New Zealand) and cell viability count was performed using a haemocytometer. The spleen cell suspension was diluted to give a 5×10^6 cells/ml solution and Concanavalin A (Sigma-Aldrich Inc, St Louis Mo., USA) was added at a final concentration of 25 μg/ml. 200 μl of this suspension was plated on to 96-well flat-bottomed tissue culture plates (Becton Dickinson, USA) and left in a humidified CO2 incubator at 37° C. for 72 hours. At the end of each incubation period, the plate was removed from the incubator and stored at −70° C. The plates were thawed prior to performing ELISA.
The tissue culture plates that were frozen at […] were thawed. […] The supernatant was analysed by ELISA to quantify the amount of IFN-γ and IL-4 produced following the in vitro stimulation with Concanavalin A. ELISA was performed using ELISA kits for mouse IFN-γ and IL-4 (BD, Pharmingen) as recommended by the manufacturers.

Data set [7] has as its system natural killer cells (NK). Briefly: Single colour flow cytometry with leukocyte marker antibodies, NK cells. The following applies: whole blood, δ-tocotrienol group compared to control. The format is in vivo, BALB/c mice. The procedure: as §1
(§2) Fluorescein isothiocyanate (FITC) or Phycoerythrin-labeled antibodies were diluted by adding 20 μl of antibody to 50 μl of Staining Buffer in separate tubes. 100 μl of whole blood from mouse was added to each tube and mixed gently. The samples were then incubated for one hour at room temperature in the dark. After incubation, 2 ml of RBC Lysis Buffer was added into each tube and mixed gently. Samples were then centrifuged at 400 g for 5 minutes at room temperature. A wash step was carried out by adding 2 ml of Staining Buffer and samples were again centrifuged at 400 g for 5 minutes at room temperature. Supernatant was removed and 200 μl Staining Buffer was added into each tube followed by 204 μl of 4% Formalin. Samples were analysed using Flow Cytometer.

Data set [8] has as its system B-lymphocytes. Briefly: Single colour flow cytometry with leukocyte marker antibodies, B-lymphocytes. The format is in vivo, BALB/c mice. The following applies: whole blood, δ-tocotrienol group compared to control. The procedure: as §1, §2
(In general: A flow cytometer gives signals particle by particle.)

The subject of data set [9] is Splenocytes. Briefly: MTT viability assay of splenocytes. The format is cell-based, BALB/c mice. The following applies: splenocytes of treated mice, addition of concanavalin A or OVA. The procedure:
Viability of the cells was measured by the MTT assay. In this assay MTT is converted to a blue formazan product by dehydrogenases that are active in living cells. Splenocytes were seeded with concanavalin A or OVA in a 96 well plate in a total volume of 200 μl of medium. MTT (25 μl of 5 mg/ml) was added to each well. After 4 hours, 100 μl of extraction buffer consisting of 20% SDS dissolved in a 50% dimethyl formamide/50% water solution at pH 4.0 was added. The blue colour formed was measured at 590 nm.
The MTT assay uses the principle whereby cell growth or cell death is indicated by the conversion or lack of conversion of the tetrazolium salt to the coloured product, formazan, the concentration of which can be measured spectrophotometrically.
For orientation: Formazan colour is commonly taken as a measure of viable cells.

For data set [10] the following is noted: mouse, in vivo.
Experimental: BALB/c mice were divided into 2 groups. Control group only received ethanol the carrier whilst the experimental group was treated with 1 mg of δ-tocotrienols daily for 4 weeks. It was applied on the back to examine subcutaneous absorption.
Female BALB/c mice 3 to 4 weeks old were obtained from the Animal Breeding Unit, Institute for Medical Research (IMR), Kuala Lumpur, Malaysia. […] The control animals were treated with ethanol alone whilst the experimental groups were applied daily with 0.5 ml of a 20 mg/ml concentration to deliver 1 mg of δ-tocotrienol.
The tocopherols and tocotrienols were analysed by HPLC. The system used was a Shimadzu LC-10AT HPLC coupled with a Shimadzu Model RF-10AXL fluorescence spectrophotometer, Shimadzu Class VP data acquisition software, and silica column (YMC A-012/150×6 mm I.D, 5 μm). The eluting solvent was hexane/isopropyl alcohol (99.5/0.5 v/v) at a flow rate of 2.0 ml/min. The detector was set at excitation wavelength of 295 nm and emission wavelength of 325 nm. 500 mg adipose tissue was homogenized with 4:1:1 mixture of hexane:ethanol and 0.9% sodium chloride at 10000 rpm for 5 minutes. The homogenate was then centrifuged at 2000 rpm for 5 minutes. The resulting supernatant was filtered and evaporated using a rotary evaporator. A known amount of lipid sample was dissolved in a 10 ml volumetric flask using the eluting solvent and 10 μl of the solution was injected into the HPLC system. A standard solution of a mixture of α, γ, and δ-tocotrienols was also injected accordingly. Quantification of the major components of vitamin E was carried out by comparing the peak areas of the components with those of the standards.
Data set [11] has as its system MCF-7 cells. The note with it: α-T combined with tamoxifen; cited from earlier work.
Data set [12] deals with MDA-MB-231 cells. The following applies: cited from earlier work.

With `CC(C)=CCC/C(C)=C/CC/C(C)=C/CC[C@]1(C)CCc2c(C)c(O)c(C)c(C)c2O1` [α-T3, α-tocotrienol], the “proliferation of MCF-7” value in data set [1] is “inhibited proliferation”. In [2], the “proliferation of ZR-75-1 cells” value is recorded as “inhibited proliferation”. In addition, the “anti-proliferative and pro-apoptotic effects / inhibition of breast cancer cell growth” value in data set [3] is “potent anti-proliferative and pro-apoptotic effects”. Further, the “concentration in adipose tissue and skin” value in data set [4] is “significantly higher”.
`CC(C)=CCC/C(C)=C/CC/C(C)=C/CC[C@]1(C)CCc2cc(O)c(C)c(C)c2O1` [γ-T3, γ-tocotrienol]: in data set [1], the “proliferation of MCF-7” value was “inhibited proliferation”. In addition, the “proliferation of ZR-75-1 cells” value in [2] is reported as “inhibited proliferation”. Also, the “anti-proliferative and pro-apoptotic effects / inhibition of breast cancer cell growth” value in data set [3] was “potent anti-proliferative and pro-apoptotic effects”. Also, in [5], the “effect on prostate cancer cell growth” value is listed as “greater anti-proliferative effects than γ-T”.
Consider `Cc1c(O)cc2c(c1C)O[C@](C)(CCC[C@H](C)CCC[C@H](C)CCCC(C)C)CC2` [γ-T, γ-tocopherol, reference compound], for which the “effect on prostate cancer cell growth” value in [5] is on record as “much stronger inhibitory effect”.
With `CC(C)=CCC/C(C)=C/CC/C(C)=C/CC[C@]1(C)CCc2cc(O)cc(C)c2O1` [δ-T3, δ-tocotrienol], the results for the IFN-γ in splenocytes entry in data set [6] and in [6] (listed as δ-tocotrienols) were “significantly higher” and “significant increase”, respectively. Besides, the values for the natural killer cells result in [7] and in data set [7] (listed as δ-tocotrienols) were “significantly increased” and “increase”, respectively. The B-lymphocytes entry in data set [8] was “significantly increased”; in data set [8] (listed as δ-tocotrienols), “increase”. In addition, the “splenocyte growth (MTT OD reading)” value in data set [9] is listed as “grew normally”. Besides, the “changes in tocotrienol levels in blood, spleen and liver” value in [10] is recorded as “only seen at week 4”. Further, the “concentration in adipose and subcutaneous fat tissue at week 3” value in [10] was “drop in concentration”. The “time of optimum concentration in breast and abdominal adipose and subcutaneous fat tissue” value in data set [10] worked out at 2 week. Besides, the “δ-T3 in breast and abdominal adipose and subcutaneous fat tissue” value in data set [10] is “significant increases”. Besides, in [1], the “proliferation of MCF-7” value is on record as “inhibited proliferation”. The “proliferation of ZR-75-1 cells” value in data set [2] is given as “inhibited proliferation”. The “synergistic efficacy with Tamoxifen” value in data set [3] (breast cancer) was “highest synergistic efficacy”. In addition, the “anti-proliferative and pro-apoptotic effects / inhibition of breast cancer cell growth” value in data set [3] is “potent anti-proliferative and pro-apoptotic effects”; in [3] (listed as δ-tocotrienol), “most effective inhibitor”.
Take `Cc1c(C)c2c(c(C)c1O)CC[C@@](C)(CCC[C@H](C)CCC[C@H](C)CCCC(C)C)O2` [α-T, α-tocopherol]: the “increase of the IC50 for tamoxifen” value in [11] is reported as “more than 1000 fold”. Besides, the “effect on growth inhibitory effects of tamoxifen” value in [12] is on record as “completely blocked”. The “anti-proliferative and pro-apoptotic effects / inhibition of breast cancer cell growth” value in data set [3] is “no effect”.
